Marks after values point to notes of the source that are not given here.
Key:
[1] = tested on: ZIP6; test: Duodenal gene expression by RT-qPCR: ZIP6; format: in vivo, Gallus gallus; conditions: 2.5 wt. % genistein vs all other treatment groups, p < 0.05; duodenum
Procedure: (§1) Cornish-cross fertile broiler eggs (Gallus gallus, n = 39) were obtained from a commercial hatchery (Moyer’s chicks, Quakertown, PA, USA). The eggs were incubated under optimal conditions at the Cornell University Animal Science Poultry Farm Incubator [18]. All animal protocols were approved by Cornell University Institutional Animal Care and Use committee (IACUC #2020-0077). At day 17 of embryonic incubation, eggs containing viable embryos were weighed and divided into 5 groups, with all treatment groups assigned eggs of similar weight frequency distribution. Each group was then injected with the specific solution (1 mL per egg) with a 21-gauge needle into the amniotic fluid. Treatments in powder form were separately diluted in DI H2O. […]
(§2) Total RNA was extracted from 30 mg of the proximal duodenal (n=6) or liver tissues (n=6) using Qiagen RNeasy Mini Kit (Qiagen Inc., Valencia, CA) according to the manufacturer’s protocol. […] RNA was quantified by absorbance at 260-280 nm using a NanoDrop 2000 (ThermoFisher Scientific, Waltham, MA). […]
(§3) As previously described. cDNA was generated using a 20 uL reverse transcriptase (RT) reaction in a BioRad C1000 touch thermocycler using the Improm-II Reverse Transcriptase Kit (Catalog #A1250; Promega, Madison, WI, USA). […] Genomic DNA contamination was assessed using a RT-PCR assay for the reference of genes samples. […]

[2] = tested on: Hepcidin; test: Liver gene expression by RT-qPCR: hepcidin; format: in vivo, Gallus gallus; conditions: genistein exposure vs no injection, p < 0.05
Procedure: as §1, §2, §3

[3] = tested on: DcytB; test: Duodenal gene expression by RT-qPCR: DcytB; format: in vivo, Gallus gallus; conditions: genistein treatment groups vs no injection, H2O and inulin, p < 0.05; duodenum
Procedure: as §1, §2, §3

[4] = tested on: DMT1; test: Duodenal gene expression by RT-qPCR: DMT1; format: in vivo, Gallus gallus; conditions: 1.25 wt. % genistein vs no injection and H2O controls, p < 0.05; duodenum
Procedure: as §1, §2, §3

[5] = Blood hemoglobin (QuantiChrom Hemoglobin Assay) at hatch after intraamniotic administration; format: in vivo, Gallus gallus; conditions: for Average Hb: day 17, blood at hatch
Procedure: Cornish-cross fertile broiler eggs (Gallus gallus, n = 39) were obtained from a commercial hatchery (Moyer’s chicks, Quakertown, PA, USA). The eggs were incubated under optimal conditions at the Cornell University Animal Science Poultry Farm Incubator [18]. […] Each group was then injected with the specific solution (1 mL per egg) with a 21-gauge needle into the amniotic fluid. Treatments in powder form were separately diluted in DI H2O. […] After injection, the injection holes were sealed with cellophane tape and the eggs were placed in hatching baskets such that each treatment was equally represented at each incubator location. Immediately upon hatch (day 21), blood was taken for hemoglobin determination and all chicks were then euthanized by CO2 exposure. The small intestine, pectoral muscle, cecum, and liver were collected, immediately frozen in liquid nitrogen, and then stored in a -80° C. freezer until analysis.
Blood was collected using micro-hematocrit heparinized capillary tubes (Fisher Scientific, Waltham, MA, USA). Blood Hb concentrations were determined spectrophotometrically using the QuantiChromTM Hemoglobin Assay (DIHB-250, BioAssay Systems, Hayward, CA, USA) following the kit manufacturer’s instructions.

[6] = tested on: glial cells; conditions: via ceruloplasmin and ferroportin-1; cited from earlier work
[7] = Body weight and cecum weight at hatch after intraamniotic administration; format: in vivo, Gallus gallus; conditions: for Average Body Weight / Average Cecum Weight: day 17, at hatch
Procedure: Cornish-cross fertile broiler eggs (Gallus gallus, n = 39) were obtained from a commercial hatchery (Moyer’s chicks, Quakertown, PA, USA). The eggs were incubated under optimal conditions at the Cornell University Animal Science Poultry Farm Incubator [18]. All animal protocols were approved by Cornell University Institutional Animal Care and Use committee (IACUC #2020-0077). At day 17 of embryonic incubation, eggs containing viable embryos were weighed and divided into 5 groups, with all treatment groups assigned eggs of similar weight frequency distribution. Each group was then injected with the specific solution (1 mL per egg) with a 21-gauge needle into the amniotic fluid. Treatments in powder form were separately diluted in DI H2O. Two treatment groups (1.25, 2.5 wt. %), two controls (H2O and non-injected), and a positive control (5 wt. % inulin) were administered. After injection, the injection holes were sealed with cellophane tape and the eggs were placed in hatching baskets such that each treatment was equally represented at each incubator location. Immediately upon hatch (day 21), blood was taken for hemoglobin determination and all chicks were then euthanized by CO2 exposure. The small intestine, pectoral muscle, cecum, and liver were collected, immediately frozen in liquid nitrogen, and then stored in a -80° C. freezer until analysis.

[8] = 1.25 wt. % genistein intraamniotic
[9] = 2.5 wt. % genistein intraamniotic

## O=c1c(-c2ccc(O)cc2)coc2cc(O)cc(O)c12 [Genistein, genistein]
[1]
  Gene expression of ZIP6: significantly downregulated
[2]
  Gene expression of hepcidin: significantly upregulated
[3]
  Gene expression of DcytB: significantly downregulated
[4]
  Gene expression of DMT1: downregulated
[5]; [8]
  Average Hb: 14.98 ± 0.45 ^a g/dL
[5]; 1.25 wt. % genistein vs No Injection, H2O and 5 wt. % inulin, p < 0.05
  Blood hemoglobin (Hb) levels vs controls: significantly elevated
[5]; [9]
  Average Hb: 14.23 ± 0.79 ^ab g/dL
[5]; 2.5 wt. % genistein vs H2O and 5 wt. % inulin
  Blood hemoglobin vs controls: significantly higher
[5]; 2.5 wt. % genistein vs No Injection
  Blood hemoglobin vs control: higher
[6]
  Fe export: significantly increased
[7]; [8]
  Average Body Weight: 45.83 ± 0.99 ^ab g
  Average Cecum Weight: 0.50 ± 0.04 ^ab g
[7]; [9]
  Average Body Weight: 47.69 ± 1.30 ^a g
  Average Cecum Weight: 0.44 ± 0.03 ^b g
[7]; 2.5 wt. % genistein vs non-injected group, p < 0.05
  Body weight vs control: significantly higher
[7]; 2.5 wt. % genistein, p < 0.05
  Cecum weight of no injection and H2O groups compared to treated group: significantly greater values
